Experimental data from patent publication US6962900B2, “Pharmaceutical being used for treating HIV infection, the composition and uses thereof” (priority 2001, dated 2005).
“Also recorded” adds a separate entry of the source. Peptide text beside a SMILES is read from it.

Tests used:
HIV-1 gp160HXB = target: T1, HIV-1 gp160HXB (Human immunodeficiency virus type 1 group M subtype B, UniProt P04578); test: cell-cell fusion assay (luciferase reporter, synplasm formation induced by HIV-1 gp160HXB); assay type: cell-based
T1 construct: expressed in transfected cells; host or cells: 293T cells
T1 sequence (P04578 512-856): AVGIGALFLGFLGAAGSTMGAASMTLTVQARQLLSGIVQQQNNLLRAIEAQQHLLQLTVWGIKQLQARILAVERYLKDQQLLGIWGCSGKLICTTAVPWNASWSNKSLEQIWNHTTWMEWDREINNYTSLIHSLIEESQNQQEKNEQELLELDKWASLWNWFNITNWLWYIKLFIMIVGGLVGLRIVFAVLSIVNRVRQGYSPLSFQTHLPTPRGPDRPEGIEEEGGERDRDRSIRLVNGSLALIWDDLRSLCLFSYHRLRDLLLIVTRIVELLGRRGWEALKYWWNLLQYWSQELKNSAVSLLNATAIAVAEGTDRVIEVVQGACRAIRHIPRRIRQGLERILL
Description: The specific experiment methods are as follows: The T7 promoter was inserted into the pSP64 upstream sequence of the cloning site to assemble a luciferase reporter gene plasmid—Pst7luc. The internal ribozyme entry site (IRES) of encephalomyocarditis virus (CMCV) was linked with the 5′-terminal of luciferase gene as well as the downstream area of T7 promoter. CD4 gene, T7 polymerase gene, and HIV-1 gp160HXB gene were subcloned into the mammalian expression plasmid—PMT3.
In a 10 cm culture dish, the 293T cells were transferred by Calcium Phosphate Method. Equal quantities of gp160HXB gene and T7 polymerase gene were used to transfect the effector cells, and pSP64 and CD4 gene were used to transfect the target cells. The PMT3 plasmid in the absence of gp160HXB or CD4 gene was set as a negative control.
The cells with non-serous DMEM were rinsed, after the DNA precipitate was added. The cells were cultured for 30-40 minutes at 37° C. in 9 ml/dish non-serous DMEM. […]
The solution as a stock solution was put to serial dilution in culture medium before use. […] Two minutes after adding luciferase substrate to the black 96-well culture plate, measure the chemical fluorescence intensity with Spex fluorolog-3 fluorimeter, the emission wavelength being 552 nm and slit breadth being 7 mm. The average and standard deviation were calculated from the three data of each concentration point.

gp41 N-peptide = target: T2, gp41 N-peptide (Human immunodeficiency virus type 1 group M subtype B, UniProt P04578); test: stability by melting curve (circular dichroism) of peptide complexed with gp41 N-peptide; assay type: physicochemical, HIV-1
T2 construct: The peptide solution containing Fusonex and gp41 N-peptide (35-70) was measured
T2 sequence (P04578 546-581): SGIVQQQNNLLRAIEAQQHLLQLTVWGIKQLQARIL
Protocol: This experiment determined the stability of a polypeptide by measuring its melting curve at different temperatures. The experiment was carried out on Aviv 62A DS circular dichroism spectrum apparatus. The temperature range for heating peptide solution was from 20° C. to 95° C.

HIV = settings: first and second stages of clinical trials; cited from earlier work

For `CC[C@H](C)[C@H](NC(=O)[C@H](CCC(=O)O)NC(=O)[C@H](CCCNC(=N)N)NC(=O)[C@H](CCC(=O)O)NC(=O)[C@H](Cc1c[nH]c2ccccc12)NC(=O)[C@@H](NC(=O)[C@H](CCC(=O)O)NC(=O)[C@H](Cc1c[nH]c2ccccc12)NC(=O)[C@H](CO)NC(C)=O)[C@@H](C)O)C(=O)N[C@@H](CCC(=O)O)C(=O)N[C@@H](CC(N)=O)C(=O)N[C@@H](Cc1ccc(O)cc1)C(=O)N[C@H](C(=O)N[C@@H](CCCCN)C(=O)N[C@@H](CCC(N)=O)C(=O)N[C@H](C(=O)N[C@@H](Cc1ccc(O)cc1)C(=O)N[C@@H](CCCCN)C(=O)N[C@H](C(=O)N[C@@H](CC(C)C)C(=O)N[C@@H](CCC(=O)O)C(=O)N[C@@H](CCC(=O)O)C(=O)N[C@@H](CO)C(=O)N[C@@H](CCC(N)=O)C(=O)N[C@@H](CCC(=O)O)C(=O)N[C@@H](CCC(N)=O)C(=O)N[C@@H](CCC(N)=O)C(=O)N[C@@H](CC(=O)O)C(=O)N[C@@H](CCCNC(=N)N)C(=O)N[C@@H](CC(N)=O)C(=O)N[C@@H](CCC(=O)O)C(=O)N[C@@H](CCCCN)C(=O)N[C@@H](CC(=O)O)C(=O)N[C@@H](CC(C)C)C(=O)N[C@@H](CC(C)C)C(=O)N[C@@H](CCC(=O)O)C(N)=O)[C@@H](C)CC)[C@@H](C)CC)[C@@H](C)O` [Fusonex] (Ac-SWETWEREIENYTKQIYKILEESQEQQDRNEKDLLE-NH2), the IC50 (HIV-1 gp160HXB) was 1.2 ± 0.2 nM, the “inhibiting activity compared with T-20 (cell fusion induced by HIV-1 gp160HXB)” value (HIV-1 gp160HXB; at the same concentration, FIG. 5) was “better inhibiting activity than T-20” and the “stability compared with T-20 (melting curve)” value (gp41 N-peptide; FIG. 4) was “higher than that of T-20; also recorded: more stable than T-20”. The 50% melting temperature (gp41 N-peptide; heating 20° C. to 95° C.) was 70 °C.

In the case of enfuvirtide, the “toxicity against the spinal cord” value (HIV) is given as “no toxicity against the spinal cord”.
